Results: patent US12012584B2 (priority 2017, dated 2024)

Key:
[1] = after 8 hours incubation at 4° C., FIG. 22

SMILES	trapping of the molecule by PEEK	amount of nicotine remaining in a PEEK plate (8 h)	amount of nicotine remaining in a PDMS plate [1]
CN(CCCC(=O)c1cccnc1)N=O [NNK, 4-(methylnitrosamino)-1-(3-pyridyl)-1-butanone]	not trapped by the material		
CN1CCCC1c1cccnc1 (stereo not shown) [nicotine]	not trapped by the material	about 100%	about 35%
